Reference: ChEMBL document CHEMBL4311933, “Biochemical and microbiological evaluation of N-aryl urea derivatives against mycobacteria and mycobacterial hydrolases” (Medchemcomm, 2019)
≈ marks a conversion by molar mass, not a printed value. Calls of active or inactive are those of the source. No cut-off for these calls is given here.

Key:
[1] = molecular target: T1, Carboxylesterase/lipase Culp6 (Mycobacterium tuberculosis (strain ATCC 25618 / H37Rv), UniProt O53581); assay: (§1) Inhibition of recombinant Mycobacterium tuberculosis H37Rv ATCC 25618 Rv3802c expressed in Escherichia coli T7 assessed as residual activity by measuring hydrolysis of resorufin butyrate at 200 uM using resorufin butyrate as substrate preincubated for 15 mins followed by substrate addition by relative to control; conditions: read-out: Activity
T1 sequence (O53581 whole entry): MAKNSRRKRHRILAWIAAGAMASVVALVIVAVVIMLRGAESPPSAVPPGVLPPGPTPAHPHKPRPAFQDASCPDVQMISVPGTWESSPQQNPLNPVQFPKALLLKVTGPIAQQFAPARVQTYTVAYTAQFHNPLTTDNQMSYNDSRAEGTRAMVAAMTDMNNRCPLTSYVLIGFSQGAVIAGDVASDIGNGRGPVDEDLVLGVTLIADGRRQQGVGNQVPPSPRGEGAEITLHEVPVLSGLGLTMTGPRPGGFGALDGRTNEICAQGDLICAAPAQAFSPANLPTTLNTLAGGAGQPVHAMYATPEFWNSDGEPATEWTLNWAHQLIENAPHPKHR

[2] = test system: Mycobacterium tuberculosis H37Rv; assay: Inhibition of recombinant Mycobacterium tuberculosis H37Rv ATCC 25618 mycolyltransferase expressed in Escherichia coli T7 at 500 uM using resorufin butyrate as substrate preincubated for 15 mins followed by substrate addition by fluorimetric assay
[3] = molecular target: T1, Carboxylesterase/lipase Culp6; assay: as §1, with “500” for “200”, “addition” for “addition by”; conditions: for activity at 500 µM: read-out: Activity
[4] = test system: Mycobacterium tuberculosis H37Rv; assay: as §1, with “ATCC 25618 mycolyltransferase expressed in” for “ATCC 25618 Rv3802c expressed in”, “addition by fluorimetric assay relative to” for “addition by relative to”
[5] = test system: Mycobacteroides abscessus; assay: Antimycobacterial activity against Mycobacterium abscessus ATCC 19977 after 7 days by resazurin microtiter assay; type: functional; conditions: ATCC 19977, 168 h
[6] = Selectivity index, ratio of IC50 for murine L929 cells to MIC for Mycobacterium tuberculosis H37Ra ATCC 25177; type: toxicity; conditions: mouse, read-out: Selectivity Index
[7] = test system: Mycolicibacterium smegmatis; assay: Antimycobacterial activity against Mycobacterium smegmatis mc2 155 after 7 days by resazurin microtiter assay; type: functional; conditions: MC2 155, 168 h
[8] = test system: Mycobacterium tuberculosis; assay: Antimycobacterial activity against Mycobacterium tuberculosis H37Rv mc2 6206 after 7 days by resazurin microtiter assay; type: functional; conditions: H37Rv mc2 6206, 168 h
[9] = Selectivity index, ratio of IC50 for murine L929 cells to MIC for Mycobacterium tuberculosis H37Rv mc2 6206; type: toxicity; conditions: mouse, read-out: Selectivity Index
[10] = test system: Mycobacterium tuberculosis; assay: Antimycobacterial activity against Mycobacterium tuberculosis H37Ra ATCC 25177 after 7 days by resazurin microtiter assay; type: functional; conditions: H37Ra ATCC 25177, 168 h
[11] = test system: L929; assay: Cytotoxicity against murine L929 assessed as reduction in cell viability after 24 hrs by MTT assay; type: cell-based; conditions: Mus musculus, L929, 24 h
[12] = molecular target: T1, Carboxylesterase/lipase Culp6; assay: Inhibition of recombinant Mycobacterium tuberculosis H37Rv ATCC 25618 Rv3802c cutinase expressed in Escherichia coli T7 at 500 uM using resorufin butyrate as substrate preincubated for 15 mins followed by substrate addition relative to control
[13] = molecular target: T1, Carboxylesterase/lipase Culp6; assay: Inhibition of recombinant Mycobacterium tuberculosis H37Rv ATCC 25618 Rv3802c cutinase expressed in Escherichia coli T7 assessed as inhibition constant using resorufin butyrate as substrate preincubated for 15 mins followed by substrate addition

## O=C(Nc1cc(F)cc(F)c1)N(Cc1ccco1)Cc1ccco1
[1]
  activity at 200 µM: 100%

## O=C(NCc1cccs1)Nc1ccccc1
[2]
  inhibition: inactive
[3]
  activity at 500 µM: 50.5%

## O=C(NCc1ccco1)Nc1ccc(C(F)(F)F)cc1
[3]
  activity at 500 µM: 82%

## O=C(NCc1ccco1)n1nnc2ccccc21
[1]
  activity at 200 µM: 44%
[4]
  Activity: 80%

## O=C(NCC1CCCCC1)Nc1cc(F)cc(F)c1
[3]
  activity at 500 µM: 72.5%
[5]
  MIC: 25 µM (≈ 6.71 µg/mL)
[6]
  selectivity ratio: > 20
[7]
  MIC: 62.5 µM (≈ 16.8 µg/mL)
[8]
  MIC: 3.12 µM (≈ 0.837 µg/mL)
[9]
  selectivity ratio: > 20
[10]
  MIC: 25 µM (≈ 6.71 µg/mL)
[11]
  IC50: 70 µM

## O=C(NCc1ccco1)Nc1cc(F)cc(F)c1
[12]
  inhibition at 500 µM: 88%
[3]
  activity at 500 µM: 13%
[13]
  Ki: 5.2 µM

## O=C(NCC1CCCCC1)Nc1ccc([N+](=O)[O-])cc1
[3]; 500 µM
  Activity: Active
[5]
  MIC: > 100 µM
[6]
  selectivity ratio: > 20
[7]
  MIC: 15.6 µM (≈ 4.33 µg/mL)
[8]
  MIC: 3.12 µM (≈ 0.865 µg/mL)
[9]
  selectivity ratio: > 20
[10]
  MIC: 25 µM (≈ 6.93 µg/mL)
[11]
  IC50: 57 µM

## O=C(NCc1ccco1)Nc1ccccc1
[2]
  inhibition: inactive
[3]
  activity at 500 µM: 38.2%

## O=C(Nc1ccccc1)NC1CCCC1
[2]
  inhibition: inactive
[3]
  activity at 500 µM: 56.2%

## O=C(NCC1CCCCC1)n1nnc2ccccc21
[1]
  activity at 200 µM: 43%

## O=C(NCc1nc2ccccc2[nH]1)Nc1cc(F)cc(F)c1
[1]
  activity at 200 µM: 20%

## O=C(Nc1ccccc1)NC1CCCCC1
[2]
  inhibition: inactive
[3]
  activity at 500 µM: 84.3%

## O=C(NCC1CCCCC1)Nc1ccc(F)cc1
[3]
  activity at 500 µM: 66%

## O=C(NCc1ncc[nH]1)Nc1cc(F)cc(F)c1
[1]
  activity at 200 µM: 100%

## O=C(Nc1ccccc1)N1CCCCC1
[2]
  inhibition: inactive
[3]
  activity at 500 µM: 43%

## O=C(NCc1ccco1)n1ccnn1
[1]
  activity at 200 µM: 72.5%
[4]
  Activity: 14%

## O=C(NCC1CCCCC1)Nc1ccc(C(F)(F)F)cc1
[3]
  activity at 500 µM: 83.6%
[5]
  MIC: > 100 µM
[6]
  selectivity ratio: > 20
[7]
  MIC: > 100 µM
[8]
  MIC: 1.5 µM (≈ 0.45 µg/mL)
[9]
  selectivity ratio: > 20
[10]
  MIC: 12.5 µM (≈ 3.75 µg/mL)
[11]
  IC50: 56 µM

## O=C(NCC1CCCCC1)Nc1ccccc1
[2]
  inhibition: inactive
[3]
  activity at 500 µM: 53%

## CSc1nncn1C(=O)NCC1CCCCC1
[1]
  activity at 200 µM: 40%

## O=C(NCCc1ccccc1)Nc1ccccc1
[2]
  inhibition: inactive
[3]
  activity at 500 µM: 73.1%

## O=C(NCC1CCCCC1)Nc1ccc(Br)cc1
[3]
  activity at 500 µM: 100%

## O=C(Nc1cc(F)cc(F)c1)N(Cc1ccc(F)cc1)Cc1ccco1
[1]
  activity at 200 µM: 100%

## O=C(NCc1ccco1)Nc1ccc(F)cc1
[3]
  activity at 500 µM: 54.9%
